From US11078171B2, “Non-ATP/catalytic site p38 mitogen activated protein kinase inhibitors” (University of Maryland, Baltimore, priority 2018, dated 2021)

Tests used:
[1] = system: LPS-induced acute lung injury in mice; assay: Mouse LPS acute lung injury model with UM101 analogues, total protein in lung lavage fluid (FIG. 9, FIG. 10); format: in vivo; conditions: FIG. 9: pretreated i.p. with 1 mg, then 100 mg LPS i.t. at 39° C.
Experimental: FIG. 9 illustrates that UM101 and analogues inhibit acute lung injury in a mouse model. Mice were pretreated i.p. with 1 mg of test compounds and then treated with […] LPS i.t. at 39° C. to induce inflammation. Lung injury was assessed by measuring total protein in the lung lavage fluid.
FIG. 10 illustrates that UM101 and analogues inhibit acute lung injury in a mouse model. All mice received 50 μg LPS i.t. and were kept 24 h at 39° C.; all treatments 1 mg in 0.5 ml DMSO given 6 h post-LPS; mean SM, n=5, *p=0.03 vs DMSO #1; †p=0.16 vs DMSO #2. Lung injury was assessed by measuring total protein in the lung lavage fluid.
First, the compounds can block thrombin-induced cell permeability in human vascular endothelial cells (FIG. 8). […] Mice were pretreated i.p. with 1 mg of test compounds and then treated with […] LPS i.t. at 39° C. to induce inflammation. Lung injury was assessed by measuring total protein in the lung lavage fluid. […] All mice received 50 μg LPS i.t. and were kept 24 h at 39° C.; all treatments 1 mg in 0.5 ml DMSO given 6 h post-LPS; mean±SM, n=5, *p=0.03 vs DMSO #1; †p=0.16 vs DMSO #2. Lung injury was assessed by measuring total protein in the lung lavage fluid.

ERK2 = ERK2 (Homo sapiens, UniProt P28482); assay: DSF, binding to ERK2; conditions: 10-100 μM
Experimental: Differential Scanning Fluorimetry (DSF): Binding of CADD selected compounds to p38α and […] was tested experimentally using DSF, which evaluates changes in the target protein melting temperature (ΔTm) due to interactions with test compound. SYPRO orange (Invitrogen; diluted 1:1000 in 10 mM HEPES, 150 mM NaCl, pH 7.5) and 1 μM unphosphorylated recombinant human p38α were added to 96-well PCR plates, then 50 nM to 200 μM test compound in 100% DMSO (2% final DMSO concentration) was added, the plates mixed, sealed, centrifuged at 1000 rpm for 1 min, and melting curve performed using an Applied Biosystems real time PCR instrument. The melting point was determined from the first derivative curve. In addition, […], or target-disrupted p38α mutant are used as well.
Test compounds at 10-100 μM were screened for binding to recombinant p38α and ERK2 using DSF (FIG. 1e, Table 1).

[2] = system: MK2 phosphorylation in anisomycin-stimulated HeLa cells; assay: Inhibition of substrate phosphorylation, phospho-MK2 immunoblot; format: cell-based, human; conditions: 50 μM, 30 min pretreatment
Experimental: Inhibition of substrate phosphorylation: A functional analysis of UM101 to block p38-dependent phosphorylation of MK2 and Stat-1 was performed in HeLa cells. […] Cell extracts prepared in RIPA buffer containing protease and phosphatase inhibitors were resolved by SDS-PAGE, transferred to PVDF membrane, blocked with 5% nonfat dry milk, probed with primary antibodies against phosphorylated MK2 and Stat-1, and total p38α as a loading control. Bands were detected using secondary antibodies conjugated to infrared fluorophores and infrared fluorescence imaging (Odyssey; LICOR).

Chain of ERK2 (P28482 whole entry, species assumed): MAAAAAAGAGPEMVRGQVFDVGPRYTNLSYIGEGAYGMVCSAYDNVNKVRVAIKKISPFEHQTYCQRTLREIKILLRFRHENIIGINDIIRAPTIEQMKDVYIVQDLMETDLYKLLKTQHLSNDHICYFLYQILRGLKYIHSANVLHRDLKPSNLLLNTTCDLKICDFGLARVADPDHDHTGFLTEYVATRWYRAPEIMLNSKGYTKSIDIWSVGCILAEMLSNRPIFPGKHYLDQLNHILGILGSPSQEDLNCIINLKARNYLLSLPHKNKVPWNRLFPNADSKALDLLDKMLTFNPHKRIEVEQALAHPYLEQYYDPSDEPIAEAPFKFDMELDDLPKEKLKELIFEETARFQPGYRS

O=C(Nc1ccc(CN2CCS(=O)(=O)CC2)cc1)c1ccc(Cl)cc1 [UM101, 4-chloro-N-{4-[(1,1-dioxo-1lambda˜6˜,4-thiazinan-4-yl)methyl]phenyl}benzamide]
protein leak into bronchoalveolar lavage fluid (total protein) [1]: reduced protein leak
stabilization of ERK2 (DSF) (ERK2): not ERK2
anisomycin-stimulated phosphorylation of MK2 [2]: reduced
